Experimental data published in US10179790B2 (THOMAS HELLEDAYS STIFTELSE FOR MEDICINSK FORSKNING, priority 2014, dated 2019).

Tests used:
[1] = target: MTH1 (Homo sapiens, UniProt P36639); test: MTH1 enzymatic assay and IC50 value determination (malachite green, 96- and 384-well format); assay type: biochemical; settings: hydrolysis of dGTP (100 μM), MTH1 6 nM, pyrophosphatase-coupled malachite green, 15 minutes at 22° C.
Procedure: MTH1 Enzymatic Assay and IC50 Value Determination
MTH1 catalyzes the hydrolysis of dGTP to dGMP and PPi. By coupling the reaction to pyrophosphatase added in excess PPi is converted to Pi that can be detected by using the malachite green assay reagent. Two different formats were used for IC50 determinations in the enzymatic assay, 96- and 384-well format. 96-Well Method:
Briefly, the compound to be analyzed is diluted in DMSO in a 1:3 dilution series generating 12 different compound concentrations giving a final DMSO concentration of 1% in the assay well. MTH1 diluted in assay buffer (100 mM Tris-acetate, 40 mM NaCl, 10 mM magnesium acetate, 1 mM DTT and 0.005% Tween 20) fortified with E. coli pyrophosphatase (0.2 U/ml) is added to a final concentration of 6 nM. dGTP diluted in assay buffer is added to a final concentration of 100 μM. The reaction mixture is incubated for 15 minutes at 22° C. To 100 μl reaction mixture, 25 μl Malachite green assay regent (0.095% Malachite green in 17% H2SO4, 1.5% Ammonium molybdate, 0.17% Tween 20) is added, followed by incubation with shaking for 15 minutes at 22° C. The absorbance of the assay plate is read at 630 nm using a Hidex Sense Multilabel plate reader. The IC50 value is determined by fitting a dose response curve to the data points using nonlinear regression analysis and the equation Y=Bottom+(Top−Bottom)/(1+10^((Log IC50−X)*HillSlope)), where Y is the read absorbance at 630 nm and X is log [compound].
The compounds to be tested are nano-dispensed, in 11 concentrations, directly in assay plates, with a final DMSO concentration <1%. The protocol and the reaction mixture are the same as for the 96-well assay, with a total reaction volume of 50 μl/well to which 10 μl of Malachite green reagent is added. All additions to the assay plates are made with multidrop.

[2] = tested on: cancer cell; test: Cell viability assay (resazurin); assay type: cell-based; settings: 72 h; 3 days with compound, resazurin fluorescence; cell line not named
Procedure: The utility of the compounds of the present invention can be illustrated, for example, by their activity in vitro in the cancer cell clonogenic and/or viability assay described below. The link between activity in tumor cell clonogenic assay and anti-tumor activity in the clinical setting has been well established in the art (e.g. see ref Silverstini et al Stem Cells 1993, 11(6), 258-35).
Cells are seeded into 96 well plates (1000-3000 cells/well) in DMEM GlutaMAX™ or other suitable media dependent on cell line and incubated overnight in 5% CO2, 37° C. Thereafter cells are treated with compound or vehicle and left in incubator for 3 days until staining with resazurin. Cells are incubated in resazurin (diluted in suitable media) at 37° C. for 2 hours before measuring the fluorescence (Ex544/Em590).
The compounds to be tested are nano-dispensed in 11 concentrations, directly in 384-well cell plates, with a final DMSO concentration <1%. Cells are seeded in cell plates, pre-dispensed with compounds, 50 μl/well (600-1200 cells/well). After 3 days culture in 5% CO2, 37° C., resazurin diluted in PBS is added, 10 μl/well, and cells are incubated 3 hours before measuring fluorescence (Ex544/Em590).

Structure (SMILES) | IC50 [1] [nM] | IC50 [2] [nM]
Cc1c(Cl)cccc1-c1cc(NCCc2ccc(S(C)(=O)=O)cc2)nc(N)n1 [Example 1, 6-(3-chloro-2-methylphenyl)-4-N-[2-(4-methanesulfonylphenyl)ethyl]pyrimidine-2,4-diamine] | < 200 | < 500
Cc1cccc(-c2cc(NCCCNc3ccc(S(N)(=O)=O)cn3)nc(N)n2)c1C [Example 2, 6-[(3-{[2-amino-6-(2,3-dimethylphenyl)pyrimidin-4-yl]amino}propyl)amino]pyridine-3-sulfonamide] | < 200 | < 500
CNS(=O)(=O)c1ccc(NCCNc2cc(-c3cccc(C)c3C)nc(N)n2)nc1 [Example 3, 6-[(2-{[2-amino-6-(2,3-dimethylphenyl)pyrimidin-4-yl]amino}ethyl)amino]-N-methylpyridine-3-sulfonamide] | < 200 | < 500
Cc1cccc(-c2cc(NCCNc3ccc(S(C)(=O)=O)nc3)nc(N)n2)c1C [Example 13, 6-(2,3-dimethylphenyl)-4-N-{2-[(6-methanesulfonylpyridin-3-yl)amino]ethyl}pyrimidine-2,4-diamine] | < 200 | < 500
Cc1cccc(-c2cc(NCCNc3nccc(C(N)=O)n3)nc(N)n2)c1C [Example 16, 2-[(2-{[2-amino-6-(2,3-dimethylphenyl)pyrimidin-4-yl]amino}ethyl)amino]pyrimidine-4-carboxamide] | < 200 | < 500
CC(=O)Nc1ccc(CCNc2cc(-c3cccc(C)c3C)nc(N)n2)cc1 [Example 19, N-[4-(2-{[2-amino-6-(2,3-dimethylphenyl)pyrimidin-4-yl]amino}ethyl)phenyl]acetamide] | < 200 | < 500
Cc1cccc(-c2cc(NCCc3ccc(NS(C)(=O)=O)cc3)nc(N)n2)c1C [Example 20, N-[4-(2-{[2-amino-6-(2,3-dimethylphenyl)pyrimidin-4-yl]amino}ethyl)phenyl]methanesulfonamide] | < 200 | < 500
CNS(=O)(=O)c1ccc(NCCNc2cc(-c3cccc(C)c3C)nc(N)n2)cc1 [Example 21, 4-[(2-{[2-amino-6-(2,3-dimethylphenyl)pyrimidin-4-yl]amino}ethyl)amino]-N-methylbenzene-1-sulfonamide] | < 200 | < 500
CC(=O)Nc1ccc(NCCNc2cc(-c3cccc(C)c3C)nc(N)n2)cc1C [Example 22, N-{4-[(2-{[2-amino-6-(2,3-dimethylphenyl)pyrimidin-4-yl]amino}ethyl)amino]-2-methylphenyl}acetamide] | < 200 | < 500
Cc1cccc(-c2cc(NCCNc3ccc4c(c3)NC(=O)CO4)nc(N)n2)c1C [Example 23, 6-[(2-{[2-amino-6-(2,3-dimethylphenyl)pyrimidin-4-yl]amino}ethyl)amino]-3,4-dihydro-2H-1,4-benzoxazin-3-one] | < 200 | < 500
Cc1cccc(-c2cc(NCCNc3ccccc3C(N)=O)nc(N)n2)c1C [Example 24, 2-[(2-{[2-amino-6-(2,3-dimethylphenyl)pyrimidin-4-yl]amino}ethyl)amino]benzamide] | < 200 | < 500
Cc1cccc(-c2cc(NCCOc3ccc(C(N)=O)cn3)nc(N)n2)c1C [Example 26, 6-(2-{[2-amino-6-(2,3-dimethylphenyl)pyrimidin-4-yl]amino}ethoxy)pyridine-3-carboxamide] | < 200 | < 500
CCOC(=O)c1ccc(NCCNc2cc(-c3cccc(C)c3C)nc(N)n2)nc1 [Example 28, ethyl 6-[(2-{[2-amino-6-(2,3-dimethylphenyl)pyrimidin-4-yl]amino}ethyl)amino]pyridine-3-carboxylate] | < 200 | < 500
Cc1cccc(-c2cc(NCCNc3ccc(S(N)(=O)=O)c(C(F)(F)F)c3)nc(N)n2)c1C [Example 29, 4-[(2-{[2-amino-6-(2,3-dimethylphenyl)pyrimidin-4-yl]amino}ethyl)amino]-2-(trifluoromethyl)benzene-1-sulfonamide] | < 200 | < 500
Cc1cccc(-c2cc(NCCNc3ccc(C(N)=O)cc3)nc(N)n2)c1C [Example 30, 4-[(2-{[2-amino-6-(2,3-dimethylphenyl)pyrimidin-4-yl]amino}ethyl)amino]benzamide] | < 200 | < 500
CCOC(=O)Nc1ccc(CCNc2cc(-c3cccc(C)c3C)nc(N)n2)cc1 [Example 31, ethyl N-[4-(2-{[2-amino-6-(2,3-dimethylphenyl)pyrimidin-4-yl]amino}ethyl)phenyl]carbamate] | < 200 | < 500
COc1ccc(NCCNc2cc(-c3cccc(C)c3C)nc(N)n2)cc1S(N)(=O)=O [Example 32, 5-[(2-{[2-amino-6-(2,3-dimethylphenyl)pyrimidin-4-yl]amino}ethyl)amino]-2-methoxybenzene-1-sulfonamide] | < 200 | < 500
Cc1c(Cl)cccc1-c1cc(NCCNc2ccc3c(c2)NC(=O)CO3)nc(N)n1 [Example 35, 6-[(2-{[2-amino-6-(3-chloro-2-methylphenyl)pyrimidin-4-yl]amino}ethyl)amino]-3,4-dihydro-2H-1,4-benzoxazin-3-one] | < 200 | < 500
Cc1nc2ccc(NCCNc3cc(-c4cccc(C)c4C)nc(N)n3)cc2s1 [Example 36, 6-(2,3-dimethylphenyl)-4-N-{2-[(2-methyl-1,3-benzothiazol-6-yl)amino]ethyl}pyrimidine-2,4-diamine] | < 200 | < 500
Nc1nc(NCCNc2ccc3c(c2)NC(=O)CO3)cc(-c2cccc(Cl)c2Cl)n1 [Example 38, 6-[(2-{[2-amino-6-(2,3-dichlorophenyl)pyrimidin-4-yl]amino}ethyl)amino]-3,4-dihydro-2H-1,4-benzoxazin-3-one] | < 200 | < 500
Cc1nc2ccc(NCCNc3cc(-c4cccc(Cl)c4Cl)nc(N)n3)cc2s1 [Example 39, 6-(2,3-dichlorophenyl)-4-N-{2-[(2-methyl-1,3-benzothiazol-6-yl)amino]ethyl}pyrimidine-2,4-diamine] | < 200 | < 500
Cc1cccc(-c2cc(NCCNc3cccc(S(C)(=O)=O)c3)nc(N)n2)c1C [Example 40, 6-(2,3-dimethylphenyl)-4-N-{2-[(3-methanesulfonylphenyl)amino]ethyl}pyrimidine-2,4-diamine] | < 200 | < 500
Cc1cccc(-c2cc(NCCNc3ccc(S(N)(=O)=O)cc3F)nc(N)n2)c1C [Example 42, 4-[(2-{[2-amino-6-(2,3-dimethylphenyl)pyrimidin-4-yl]amino}ethyl)amino]-3-fluorobenzene-1-sulfonamide] | < 200 | < 500
Cc1c(Cl)cccc1-c1cc(NCCc2ccc(C(N)=O)cc2)nc(N)n1 [Example 43, 4-(2-{[2-amino-6-(3-chloro-2-methylphenyl)pyrimidin-4-yl]amino}ethyl)benzamide] | < 200 | < 500
Cc1cccc(-c2cc(NCCc3ccc(C(N)=O)cc3)nc(N)n2)c1C [Example 44, 4-(2-{[2-amino-6-(2,3-dimethylphenyl)pyrimidin-4-yl]amino}ethyl)benzamide] | < 200 | < 500
CC(=O)Nc1cccc(CCNc2cc(-c3cccc(Cl)c3C)nc(N)n2)c1 [Example 46, N-[3-(2-{[2-amino-6-(3-chloro-2-methylphenyl)pyrimidin-4-yl]amino}ethyl)phenyl]acetamide] | < 200 | < 500
CCOC(=O)Nc1cccc(CCNc2cc(-c3cccc(Cl)c3C)nc(N)n2)c1 [Example 47, ethyl N-[3-(2-{[2-amino-6-(3-chloro-2-methylphenyl)pyrimidin-4-yl]amino}ethyl)phenyl]carbamate] | < 200 | < 500
